From patent publication US12636368B2, “Ionizable lipids for nucleic acid delivery” (Global Life Sciences Solutions Canada ULC, priority 2019, dated 2026)
Read-outs that look alike come from different tables or passages of the source.

Key:
[1] = TNS assay, surface pKa of lipid nanoparticles; type: physicochemical
Experimental: In embodiments of the invention, the experimental pKa of formulated lipid nanoparticles comprising lipids in Table 1 is calculated using the 2-(p-toluidinyl)naphthalene-6-sulfonic acid (TNS) assay. The procedure for the TNS assay is described in Example 25.
The pKa of each cationic lipid was determined in lipid nanoparticles using an assay based on fluorescence of 6-(p-Toluidino)-2-naphthalenesulfonic acid sodium salt (TNS, Sigma Aldrich), which is a fluorescent probe for the conformational state of proteins5. Empty lipid nanoparticles comprising ionizable lipid in LM02 composition in distilled water at a concentration of 3.125 mM total lipid are formulated using NanoAssemblr® Spark™, and were then was characterized for LNP quality on the Zetasizer™ using a 30× dilution with 1×PBS in the low volume cuvette. Lipid nanoparticles were further diluted 4× using distilled water to 0.781 mM total lipid. TNS was prepared as a 25 μM stock solution in distilled water. Then 6.4 μL of diluted LNP samples of 0.781 mM total lipid were mixed with 10 μL of diluted TNS to a final volume of 250 μL with buffer containing 10 mM HEPES, 10 mM MES, 10 mM NH4OAc and 130 mM NaCl where the pH ranged from 3 to 9 in 0.5 pH increments.
Samples were mixed thoroughly, and the fluorescence intensity was measured at room temperature in a BioTek™ Synergy™ H1 Hybrid Multi-Mode Monochromator™ Fluorescence Microplate Reader using excitation and emission wavelengths of 321 nm and 445 nm respectively. A sigmoidal best fit analysis was applied to the fluorescence data using GraphPad Prism™ software, and the pKa was measured as the pH at half-maximal fluorescence intensity.

[2] = tested on: isolated primary human T cells; experiment: GFP mRNA-LNP transfection of primary human T cells, flow cytometry; type: cell-based; settings: for GFP Protein expression score: Human T cell: Table 8, star score, legend not given
Experimental: Reagents were from Stemcell Technologies unless otherwise stated. Tcells were isolated from a single donor. At 48 h following lipid particle mRNA exposure, the treated T cells were harvested by transferring the cell suspensions to pre-labeled 1.5 mL tubes and centrifuged 300×g at 4 degrees C. for 10 minutes. Supernatant was removed and the pellet resuspended in PBS. An amount of 0.5 ul of BD Horizon™ Fixable Viability Stain 575V™ (BD Biosciences), was added, and the mixture incubated in the dark for 10 minutes at RT. This stain binds to amines.
The cells were centrifuged again as before, then washed twice with 1 mL of stain buffer (BSA, BD Pharminigen), and the washed pellet was diluted in 100 μl BSA. The following antibodies were added to each tube of treated cells in 2 μl volumes: CD25, CD8, CD4, (PerCP-Cy™ 5.5 Mouse Anti Human CD25, BV786 Mouse Anti-Human CD8 Clone RPA-T8, APC-Cy™7 Mouse Anti-Human CD4 Clone SK3 (all from BD Pharmingen) with the exception of the controls: in the eGFP only sample and viability control, no antibody was added. In the single stain compensation tubes, only one antibody per tube was added.
The tubes were incubated at 4 degrees C. for 30 min, whereupon […] of stain buffer was added, and the cells were centrifuged again. Cells were washed once with 1 mL of stain buffer and spun down again as in step one. Cell pellets were resuspended in 1 mL of stain buffer and added to pre-labeled flow tubes with cell strainer caps (Corning Falcon). […]
GFP MFI was measured by flow cytometry 48 hours after LNP addition. T cells were isolated from whole blood using a negative isolation procedure (EasySep™ Human T Cell Isolation Kit, Stemcell Technologies). T cells were dosed with mRNA-LNPs 3 days after activation with 500 ng of encapsulated mRNA per 125,000 cells. The LNP were CT10 compositions with an N/P of 8. Transfection efficiency (upper graph) and MFI (lower graph) were measured by flow cytometry 48 h after LNP addition.

[3] = LNP size and PDI by dynamic light scattering; type: physicochemical
Experimental: After the lipid particles were made as described supra, particle size (hydrodynamic diameter of the particles) was determined by Dynamic Light Scattering (DLS) using a ZetaSizer™ Nano ZS™ (Malvern Instruments, UK). He/Ne laser tuned to 633 nm wavelength was used as the light source. Data were measured from the scattered intensity data conducted in backscattering detection mode (measurement angle=173). Measurements were an average of 10 runs of two cycles each per sample. Z-Average size was reported as the particle size, and is defined as the harmonic intensity averaged particle diameter.
(§1) Physical characteristics of lipid nanoparticle (LNP) compositions comprising compounds according to Formula (I) and that were manufactured on the NanoAssemblr® Spark and Benchtop, are shown in Tables 6 and 7 below. Size, size variation of the LNP (PDI), encapsulation efficiency, and pKa are shown. The physical characteristics of these LNP are important from a standpoint of stability, biodistribution, and cell membrane crossing. There was good encapsulation in all the formulations, with polydispersity (PDI) under 0.3. Size and PDI were measured using dynamic light scattering techniques, and nucleic acid encapsulation efficiency was calculated from a modified Quant-iT RiboGreen RNA assay.

[4] = Nucleic acid encapsulation efficiency by RiboGreen assay; type: physicochemical
Experimental: Messenger RNA or plasmid NAT was diluted using sodium acetate buffer to the required concentration. Lipid nucleic acid particle samples were then prepared by running both fluids using the NanoAssemblr® Spark instrument. […] The lipid nucleic acid particles made in the instrument were immediately diluted down with 48 μL Ca and Mg free 1×PBS at pH 7.4 in the aqueous output well. These nucleic acid lipid particles were immediately collected into microcentrifuge tubes containing 96 μL of Ca and Mg free 1×PBS at pH 7.4. Encapsulation efficiency was measured by a modified Ribogreen™ assay (Quanti-iT RiboGreen™ RNA assay kit, Fisher). Observed particle attributes were generally sized from 60-200 nm for mRNA, depending on lipid composition and method of production.
as §1

[5] = Table 1, formulated lipid nanoparticles, TNS assay, read-out: Exp. pKa
[6] = Table 7, EPO mRNA LNPs, LM02, N/P 6
[7] = Table 6, GFP-encoded LNPs, CT10, N/P 8

Row | SMILES | pKa [1, 5] | pKa ([1]; Table 8, read-out: Exp.pKa) | GFP Protein expression score: Human T cell [2] | Diameter (Z. ave, nm) [3, 6] [nm] | Polydispersity Index (PDI) [3, 6] | Encapsulation Efficiency (%) [4, 6] [%] | Diameter (Z. ave, nm) [3, 7] [nm] | Polydispersity Index (PDI) [3, 7] | Encapsulation Efficiency (%) [4, 7] [%] | amount of protein produced (MFIs) compared with MC3 [2]
1 | CCCCCCCCCCCCCC(=O)O[C@@H]1[C@@H](OC(=O)CCCCCCCCCCCCC)CO[C@@H]1COC(=O)CCCCN(C)C (racemic) [PNI 120] | 7.71 | 7.7 | Toxic | – | – | – | – | – | – | –
2 | CCCCC/C=C\C/C=C\CCCCCCCC(=O)O[C@@H]1[C@@H](OC(=O)CCCCCCC/C=C\C/C=C\CCCCC)CO[C@@H]1COC(=O)CCCCN(C)C (racemic) [PNI 122] | 7.45 | 7.45 | Toxic | 102.4 | 0.15 | 99.3 | – | – | – | –
3 | CCCCC/C=C\C/C=C\CCCCCCCC(=O)O[C@@H]1[C@@H](OC(=O)CCCCCCC/C=C\C/C=C\CCCCC)CO[C@@H]1COC(=O)CCN(C)C (racemic) [PNI 321] | 5.62 | 5.62 | – | 60.0 | 0.09 | 94.9 | 68.6 | 0.07 | 92.4 | –
4 | CCCCC/C=C\C/C=C\CCCCCCCC(=O)O[C@@H]1[C@@H](OC(=O)CCCCCCC/C=C\C/C=C\CCCCC)CO[C@@H]1COC(=O)Cc1cn(C)cn1 (racemic) [PNI 336] | 4.57 | 4.57 | – | 64.3 | 0.06 | 89.8 | 79.6 | 0.07 | 86.6 | –
5 | CCCCCCCCC1CC1CCCCCCCC(=O)O[C@@H]1[C@@H](OC(=O)CCCCCCCC2CC2CCCCCCCC)CO[C@@H]1COC(=O)CCN(C)C (mixture of isomers) [PNI 342] | 6.11 | 6.11 | – | 58.2 | 0.04 | 97.2 | – | – | – | –
6 | CCCCCCCCCCCC(=O)O[C@@H]1[C@@H](OC(=O)CCCCCCCCCCC)CO[C@@H]1COC(=O)CCN(C)C (racemic) [PNI 534] | 6.42 | 5.97 | – | 75.0 | 0.15 | 89.4 | 107.1 | 0.29 | 49.3 | –
7 | CCCCCCCCC(CCCCCC)C(=O)O[C@@H]1[C@@H](OC(=O)C(CCCCCC)CCCCCCCC)CO[C@@H]1COC(=O)CCN(C)C (mixture of isomers) [PNI 535] | 4.99 | 4.99 | Not Active | 54.2 | 0.11 | 82.2 | 133.1 | 0.07 | 91.7 | –
8 | CCCCC/C=C\C/C=C\CCCCCCCC(=O)O[C@@H]1[C@@H](OC(=O)CCCCCCC/C=C\C/C=C\CCCCC)CO[C@@H]1COC(=O)CC1CCN(C)C1 (mixture of isomers) [PNI 538] | 6.79 | 6.79 | – | 67.0 | 0.11 | 98.7 | – | – | – | –
9 | CCCCC/C=C\C/C=C\CCCCCCCC(=O)O[C@H]1COC(COC(=O)CN2CCN(C)CC2)[C@@H]1OC(=O)CCCCCCC/C=C\C/C=C\CCCCC (mixture of isomers) [PNI 574] | 6.66 | – | – | – | – | – | – | – | – | –
10 | CCCCC/C=C\C/C=C\CCCCCCCC(=O)O[C@H]1COC(COC(=O)C23CCN(CC2)CC3)[C@@H]1OC(=O)CCCCCCC/C=C\C/C=C\CCCCC (stereo in doubt) [PNI 573] | 7.79 | – | – | – | – | – | – | – | – | –
11 | CCCCC/C=C\C/C=C\CCCCCCCC(=O)O[C@H]1COC(COC(=O)C2CCCN(C)C2)[C@@H]1OC(=O)CCCCCCC/C=C\C/C=C\CCCCC (stereo in doubt) [PNI 575] | 5.51 | – | – | – | – | – | – | – | – | –
12 | CCCCCCCCC1CC1CCCCCCCC(=O)O[C@@H]1[C@@H](OC(=O)CCCCCCCC2CC2CCCCCCCC)CO[C@@H]1COC(=O)C1CCN(C2CC2)CC1 (stereo in doubt) [PNI 576] | 4.24 | – | – | – | – | – | – | – | – | –
13 | CCCCCCCCC1CC1CCCCCCCC(=O)O[C@@H]1[C@@H](OC(=O)CCCCCCCC2CC2CCCCCCCC)CO[C@@H]1COC(=O)C1CCN(CC)CC1 (stereo in doubt) [PNI 577] | 6.45 | – | – | – | – | – | – | – | – | –
14 | CCCCCCCCC1CC1CCCCCCCC(=O)O[C@@H]1[C@@H](OC(=O)CCCCCCCC2CC2CCCCCCCC)CO[C@@H]1COC(=O)CC1CCCCN1C (stereo in doubt) [PNI 578] | 5.87 | – | – | – | – | – | – | – | – | –
15 | CCCCCCCCC(CCCCCC)C(=O)O[C@@H]1[C@@H](OC(=O)C(CCCCCC)CCCCCCCC)CO[C@@H]1COC(=O)C1(C)CCN(C)CC1 (stereo in doubt) [PNI 579] | 5.32 | – | – | – | – | – | – | – | – | –
16 | CCCCCCCCC(CCCCCC)C(=O)O[C@@H]1[C@@H](OC(=O)C(CCCCCC)CCCCCCCC)CO[C@@H]1COC(=O)CCCN(C)C (stereo in doubt) [PNI 580] | 5.69 | – | – | – | – | – | – | – | – | –
17 | CCCCCCCCCCCCCC(=O)O[C@@H]1[C@@H](OC(=O)CCCCCCCCCCCCC)CO[C@@H]1COC(=O)CCN(C)C [PNI 344] | 6.93 | 6.93 | – | – | – | – | – | – | – | –
18 | CCCCCC/C=C\COC(=O)CCCCCCC(=O)O[C@@H]1[C@@H](OC(=O)CCCCCCC(=O)OC/C=C\CCCCCC)CO[C@@H]1COC(=O)CCN(C)C [PNI 532] | 5.97 | 5.97 | – | 144.3 | 0.15 | 37.3 | – | – | – | –
19 | CC/C=C\CC1C(CC(=O)OCCC(CCCCCCCC)OC(=O)C(CCCCCC)CCCCCCCC)CCC1OC(=O)C1(C)CCN(C)CC1 (centres unmarked) [PNI-565] | – | – | – | – | – | – | – | – | – | better than MC3
